The results in this text go back to ChEMBL document CHEMBL5620362 (Eur J Med Chem, 2023).

SMILES strings stand for the structures. Active and inactive are the calls of the source. The calls are words filed in the database; no cut-off is given here.

In assay [1] the test system is HPAF-II. As to the kind of experiment: Induction of apoptosis in human HPAF-II cells assessed as viable cells at 0.01 uM incubated for 48 hrs by Annexin V-FITC/PI staining based flow cytometry (reference value: 89.73 %). The class given is functional. Particulars: read-out: Activity. In general terms: In flow cytometry, cells or beads pass a laser one at a time.
In assay [2] the test system is MIA PaCa-2. As to the kind of experiment: Induction of apoptosis in human MIA PaCa-2 cells 1 uM incubated for 48 hrs by Annexin V-FITC/PI staining based flow cytometry. The class given is functional, cell-based.
Assay [3] has as its system HPAF-II. As to the kind of experiment: Induction of apoptosis in human HPAF-II cells assessed as increase in cleaved caspase-3 level at 0.1 to 1 uM incubated for 48 hrs by Western blot analysis. The class given is functional, cell-based. The conditions noted are these: dose 0.1-1 µM. In general terms: In western blotting, separated proteins are transferred to a membrane and probed.

Assay [4] deals with NCI-H358. As to the kind of experiment: Induction of apoptosis in human NCI-H358 cells 1 uM incubated for 48 hrs by Annexin V-FITC/PI staining based flow cytometry. The class given is functional, cell-based.
Assay [5] concerns NCI-H23. In words: Induction of apoptosis in human NCI-H23 cells assessed as viable cells at 10 uM incubated for 48 hrs by Annexin V-FITC/PI staining based flow cytometry (reference value: 92.16 %). Particulars: read-out: Activity. The class given is functional.
Assay [6] addresses T1, Nuclear receptor ROR-gamma (Homo sapiens) (UniProt P51449).
T1 sequence (whole entry): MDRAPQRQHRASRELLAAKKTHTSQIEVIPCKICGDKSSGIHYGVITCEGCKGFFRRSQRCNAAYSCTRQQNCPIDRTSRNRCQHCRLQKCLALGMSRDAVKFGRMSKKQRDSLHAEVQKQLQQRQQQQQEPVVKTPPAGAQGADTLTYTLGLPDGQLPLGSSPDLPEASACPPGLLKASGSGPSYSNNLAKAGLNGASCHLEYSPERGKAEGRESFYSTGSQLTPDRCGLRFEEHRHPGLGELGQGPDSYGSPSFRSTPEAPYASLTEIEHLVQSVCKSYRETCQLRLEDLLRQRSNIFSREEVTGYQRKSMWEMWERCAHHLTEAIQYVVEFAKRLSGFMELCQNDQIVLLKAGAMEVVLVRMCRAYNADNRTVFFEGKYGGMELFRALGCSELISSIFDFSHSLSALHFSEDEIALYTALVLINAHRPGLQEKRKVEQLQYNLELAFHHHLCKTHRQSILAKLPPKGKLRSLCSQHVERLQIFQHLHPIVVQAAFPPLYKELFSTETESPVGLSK
In words: Antagonist activity at Gal4-tagged ROR-gamma LBD (unknown origin) transfected in HEK293T cells assessed as reduction in luciferase activity at 0.1 to 1 uM incubated for 24 hrs by Renilla luciferase reporter gene assay. Type of assay: cell-based. The conditions noted are these: filed as antagonist, dose 0.1-1 µM. (Reporter assays use an easily measured gene product as a stand-in for the process of interest.)

The subject of assay [7] is HPAF-II. As to the kind of experiment: Induction of apoptosis in human HPAF-II cells assessed as necrotic cells at 0.1 uM incubated for 48 hrs by Annexin V-FITC/PI staining based flow cytometry (reference value: 8.09 %). Type of assay: functional.
For assay [8], the system named is MIA PaCa-2. In words: Inhibition of colony formation in human MIA PaCa-2 cells harboring siROR-gamma 0.1 uM incubated for 6 to 7 days by crystal violet staining based analysis. The class given is functional, cell-based. Particulars: time 6-7 day.

On to `C=C(C)[C@@H]1CC[C@]2(C(=O)NCCCN(C)C)CC[C@]3(C)[C@H](CC[C@@H]4[C@@]5(C)CC[C@H](O)C(C)(C)[C@@H]5CC[C@]43C)[C@@H]12`, for which, in assay [1], the viability at 0.01 µM was determined as 82.6%. In addition, the result in assay [2], in assay [3], in assay [4] and in assay [6] was Active. Besides, the viability at 10 µM in assay [5] amounted to 6.54%. Also, the Activity in assay [7] was found to be 4.85%. Moreover, the inhibition result in assay [8] was “inactive”.
